# Data published in patent publication US11499978B2, “Method for measuring quality of therapeutic cell through real-time glutathione measurement” (CELL2IN, INC., priority 2017, dated 2022).
# Assays:
# T cells = test: Anti-inflammatory effect of treated hUC-MSCs on T cells; format: cell-based; settings: hUC-MSCs treated with 125 or 250 μg/mL AA2G for three days
# Method: The inventors observed an effect of the material on stem cells by treating each stem cells with a material for enhancing a glutathione evaluation parameter. When hUC-MSCs were subcultured in a L-AA2G-containing medium, CFU-F, migration capacity, and an anti-inflammatory effect were observed. A CFU-F assay (n=3) was performed by treating hUC-MSCs with 125 or 250 μg/mL of AA2G for three days. As shown in FIGS. 16A and 16B, it was confirmed that, when AA2G was treated, CFU-F increased. In addition, as hUC-MSCs were treated with 125 or 250 μg/mL of AA2G for three days, PDGF-AA-induced migration capacity (n=3) was analyzed. As shown in FIGS. 17A and 17B, it was confirmed that the migration capacity was increased by AA2G treatment. In addition, the reduction in T cell proliferation, the reduction in T cell differentiation, and the promotion of Treg cell differentiation were observed by treating hUC-MSCs with 125 or 250 μg/mL of AA2G for three days.
# In addition, hUC-MSCs were cultured with ferrostatin-1 (0.2, 1, 2 and 4 μM) and liproxstatin-1 (0.1, 0.5, 1 and 2 μM), which control a glutathione level in cells by inhibiting lipid oxidation. […] Meanwhile, the hUC-MSCs were treated with 1 μM ferrostatin-1 for 24 hours, 0.2 mM GGC for 2 hours, and 2 mM GSH-EE for 2 hours. As a result, the reduction in T cell proliferation ability and the reduction in T cell differentiation capacity were observed, and promotion of Treg cell differentiation was observed.
# hUC-MSCs = test: Oxidative stress resistance capacity (ORC) analysis in hUC-MSCs with RSL3; format: cell-based, human; settings: hUC-MSCs subcultured three times with AA2G 250 μg/mL; compared with naive cell group (NC)
# Method: GRC refers to a value obtained by real-time monitoring of FR after living cells are treated with an oxidizing agent, as calculated by dividing a value obtained by subtracting AUC of a group treated with 0.1-100 mM N-ethylmaleimide (NEM) from FR AUC of an oxidizing agent (diamide, H2O2, etc.)-treated group by a value obtained by subtracting the AUC of NEM-treated group from AUC of the untreated control, and multiplying the resulting value by 100. The FR of the NEM-treated group is a value for increasing the sensitivity of a GRC value by treating it as the blank value of the FR of the cells of interest. […] To remove the MitoFreSH-Tracer from the medium before measurement, the medium was exchanged with fresh 10 mM HEPES-containing HBSS(Hanks' Balanced Salt Solution), and a fluorescence image was obtained using a confocal imaging system, Operetta. By comparing GSH levels quantified from control cells not treated with RSL3 or control cells before treated with RSL3, the distribution of GSH expression-changed cells was calculated. Based on the point where the distribution histogram is divided into two peaks, the cells were divided into GSH^High cells (right peak) and GSH^Low cells (left peak), and then a ratio of corresponding cells was expressed as a percentage (%). […]
compound,measurement,setting,value
"O=C1O[C@H]([C@@H](O)CO)C(O)=C1O[C@H]1O[C@H](CO)[C@@H](O)[C@H](O)[C@H]1O [AA2G, ascorbic acid 2-glucoside]",T cell differentiation,T cells,reduction
same,T cell proliferation,T cells,reduction
same,Treg cell differentiation,T cells,promotion
same,anti-inflammatory effect of stem cells,T cells,exhibited
same,FreSH-Tracer-based ORC (GSH^High cells),hUC-MSCs,higher
